# Experimental data published in patent US12077503B2, “Substituted cyclic amides and their use as herbicides” (FMC CORPORATION, priority 2015, dated 2024).
# Read-outs that look alike come from different tables or passages of the source.
# Legend:
# Test in all cases: Test A preemergence
# Type in all cases: in vivo
# [1] = tested on: Kochia (Kochia scoparia); settings: Bassia scoparia, pre-emergence, 240 h; for pest or weed control at 125 g/ha: 125 g ai/ha; for pest or weed control at 500 g/ha: 500 g ai/ha
# Procedure, shortened: (§1)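 Preemergence directed soil spray on seeded pots, or postemergence application to plants 2–10 cm, one- to two-leaf. Solvent mixture non-phytotoxic, with surfactant. Scored ~10 d later, visually, 0–100 vs untreated.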
# [2] = tested on: barnyardgrass (Echinochloa crus-galli); settings: Echinochloa crus-galli, pre-emergence, 240 h; for pest or weed control at 125 g/ha: 125 g ai/ha; for pest or weed control at 500 g/ha: 500 g ai/ha
# Procedure, shortened: as §1
# [3] = tested on: giant foxtail (Setaria faberii); settings: Setaria faberi, pre-emergence, 240 h; for pest or weed control at 125 g/ha: 125 g ai/ha; for pest or weed control at 500 g/ha: 500 g ai/ha
# Procedure, shortened: as §1
# [4] = tested on: ragweed (common ragweed, Ambrosia elatior); settings: Ambrosia artemisiifolia, pre-emergence, 240 h; for pest or weed control at 125 g/ha: 125 g ai/ha; for pest or weed control at 500 g/ha: 500 g ai/ha
# Procedure, shortened: as §1
# [5] = tested on: ryegrass, Italian (Italian ryegrass, Lolium multiflorum); settings: Lolium multiflorum, pre-emergence, 240 h; for pest or weed control at 125 g/ha: 125 g ai/ha; for pest or weed control at 500 g/ha: 500 g ai/ha
# Procedure, shortened: as §1
# [6] = preemergence, 0 to 100 scale where 0 is no effect and 100 is complete control, approx. 10 d, read-out: Kochia plant response rating
# [7] = preemergence, 0 to 100 scale where 0 is no effect and 100 is complete control, read-out: Kochia plant response rating
# [8] = preemergence, 0 to 100 scale where 0 is no effect and 100 is complete control, approx. 10 d, read-out: Barnyardgrass plant response rating
# [9] = preemergence, visual injury rating about 10 d after treatment, 0 to 100 scale (0 no effect, 100 complete control), read-out: Barnyardgrass plant response rating
# [10] = preemergence, 0 to 100 scale where 0 is no effect and 100 is complete control, approx. 10 d, read-out: Foxtail, Giant plant response rating
# [11] = preemergence, 0 to 100 scale where 0 is no effect and 100 is complete control, read-out: Foxtail, Giant plant response rating
# [12] = preemergence, 0 to 100 scale where 0 is no effect and 100 is complete control, approx. 10 d, read-out: Ragweed plant response rating
# [13] = preemergence, 0 to 100 scale where 0 is no effect and 100 is complete control, read-out: Ragweed plant response rating
# [14] = preemergence, 0 to 100 scale where 0 is no effect and 100 is complete control, approx. 10 d, read-out: Ryegrass, Italian plant response rating
# [15] = preemergence, 0 to 100 scale where 0 is no effect and 100 is complete control, read-out: Ryegrass, Italian plant response rating
# [16] = Preemergence, visual injury rating after approximately 10 d, read-out: Kochia plant response rating (0 to 100 scale, 0 is no effect, 100 is complete control)
# [17] = preemergence, visual injury rating about 10 d after treatment, 0 to 100 scale (0 no effect, 100 complete control), read-out: Kochia plant response rating
# [18] = Preemergence, visual injury rating after approximately 10 d, read-out: Barnyardgrass plant response rating (0 to 100 scale, 0 is no effect, 100 is complete control)
# [19] = Preemergence, visual injury rating after approximately 10 d, read-out: Foxtail, Giant plant response rating (0 to 100 scale, 0 is no effect, 100 is complete control)
# [20] = preemergence, visual injury rating about 10 d after treatment, 0 to 100 scale (0 no effect, 100 complete control), read-out: Foxtail, Giant plant response rating
# [21] = Preemergence, visual injury rating after approximately 10 d, read-out: Ragweed plant response rating (0 to 100 scale, 0 is no effect, 100 is complete control)
# [22] = preemergence, visual injury rating about 10 d after treatment, 0 to 100 scale (0 no effect, 100 complete control), read-out: Ragweed plant response rating
# [23] = Preemergence, visual injury rating after approximately 10 d, read-out: Ryegrass, Italian plant response rating (0 to 100 scale, 0 is no effect, 100 is complete control)
# [24] = preemergence, visual injury rating about 10 d after treatment, 0 to 100 scale (0 no effect, 100 complete control), read-out: Ryegrass, Italian plant response rating
# [25] = preemergence, 0 to 100 scale where 0 is no effect and 100 is complete control, read-out: Barnyardgrass plant response rating
Structure (SMILES),"pest or weed control at 125 g/ha [1, 6] [%]","pest or weed control at 500 g/ha [1, 7] [%]","pest or weed control at 125 g/ha [2, 8] [%]","pest or weed control at 500 g/ha [2, 9] [%]","pest or weed control at 125 g/ha [3, 10] [%]","pest or weed control at 500 g/ha [3, 11] [%]","pest or weed control at 125 g/ha [4, 12] [%]","pest or weed control at 500 g/ha [4, 13] [%]","pest or weed control at 125 g/ha [5, 14] [%]","pest or weed control at 500 g/ha [5, 15] [%]","pest or weed control at 125 g/ha [1, 16] [%]","pest or weed control at 500 g/ha [1, 17] [%]","pest or weed control at 125 g/ha [2, 18] [%]","pest or weed control at 125 g/ha [3, 19] [%]","pest or weed control at 500 g/ha [3, 20] [%]","pest or weed control at 125 g/ha [4, 21] [%]","pest or weed control at 500 g/ha [4, 22] [%]","pest or weed control at 125 g/ha [5, 23] [%]","pest or weed control at 500 g/ha [5, 24] [%]",other results
Cc1cc([C@H]2CN(C)C(=O)[C@@H]2C(=O)Nc2ccccc2S(C)(=O)=O)ccc1Br [Compound 1102],20,70,90,90,90,90,0,50,30,60,–,–,–,–,–,–,–,–,–,–
CC(C)COc1cccc([C@H]2CNC(=O)[C@@H]2C(=O)Nc2ccc(F)cc2F)c1 [Compound 966],–,–,–,90,–,–,–,–,–,–,30,30,80,80,90,0,0,20,60,–
CN1C[C@H](c2cc(F)cc(Cl)c2)[C@@H](C(=O)Nc2ccccc2S(C)(=O)=O)C1=O [Compound 979],–,–,–,90,–,–,–,–,–,–,50,90,90,90,100,50,90,50,60,–
CN1C[C@H](c2ccc(C(F)(F)F)cc2)[C@](F)(C(=O)Nc2cccc(F)c2F)C1=O (racemic) [Compound 1152],0,0,20,–,70,90,0,0,0,20,–,–,–,–,–,–,–,–,–,"pest or weed control at 500 g/ha [2, 25]: 90%"
CN1C[C@H](c2cccc(COC(F)F)c2)[C@@H](C(=O)Nc2cccc(F)c2F)C1=O [Compound 873],–,–,–,–,–,–,–,–,–,–,–,–,–,–,–,–,–,–,–,"pest or weed control at 125 g/ha [1, 7]: 80%; pest or weed control at 500 g/ha ([1]; Preemergence, visual injury vs untreated controls after approximately 10 d, read-out: Kochia plant response rating (0 to 100 scale where 0 is no effect and 100 is complete control)): 90%; pest or weed control at 125 g/ha [2, 25]: 90%; pest or weed control at 500 g/ha ([2]; Preemergence, visual injury vs untreated controls after approximately 10 d, read-out: Barnyardgrass plant response rating (0 to 100 scale where 0 is no effect and 100 is complete control)): 90%; pest or weed control at 125 g/ha [3, 11]: 90%; pest or weed control at 500 g/ha ([3]; Preemergence, visual injury vs untreated controls after approximately 10 d, read-out: Foxtail, Giant plant response rating (0 to 100 scale where 0 is no effect and 100 is complete control)): 100%; pest or weed control at 125 g/ha [4, 13]: 40%; pest or weed control at 500 g/ha ([4]; Preemergence, visual injury vs untreated controls after approximately 10 d, read-out: Ragweed plant response rating (0 to 100 scale where 0 is no effect and 100 is complete control)): 90%; pest or weed control at 125 g/ha [5, 15]: 50%; pest or weed control at 500 g/ha ([5]; Preemergence, visual injury vs untreated controls after approximately 10 d, read-out: Ryegrass, Italian plant response rating (0 to 100 scale where 0 is no effect and 100 is complete control)): 80%"
CN1C[C@H](c2cc(C(F)F)cs2)[C@@H](C(=O)Nc2ccccc2F)C1=O [Compound 1120],40,70,90,100,90,100,40,50,20,40,–,–,–,–,–,–,–,–,–,–
O=C1NC[C@H](c2ccc(F)c(OC(F)(F)C(F)F)c2)[C@H]1C(=O)Nc1cccc(F)c1F [Compound 1131],100,90,90,–,90,90,60,80,0,70,–,–,–,–,–,–,–,–,–,"pest or weed control at 500 g/ha [2, 25]: 90%"
Cc1ccc([C@H]2CN(C)C(=O)[C@]2(O)C(=O)Nc2cccc(F)c2F)cc1 (racemic) [Compound 1059],0,–,–,90,–,–,0,–,0,–,–,20,70,70,80,–,30,–,0,–
CSc1ccccc1NC(=O)[C@H]1C(=O)NC[C@@H]1c1cc(F)c(F)c(F)c1 [Compound 1124],70,90,60,–,90,90,0,60,0,30,–,–,–,–,–,–,–,–,–,"pest or weed control at 500 g/ha [2, 25]: 90%"
Cc1ccc([C@H]2CNC(=S)[C@@H]2C(=O)Nc2cccc(F)c2F)cc1 (racemic) [Compound 946],–,–,–,80,–,–,–,–,–,–,0,50,60,0,20,0,0,0,0,–
CSc1ccccc1NC(=O)[C@H]1C(=O)NC[C@@H]1c1cc(F)cc(Cl)c1 [Compound 977],–,–,–,90,–,–,–,–,–,–,90,90,90,90,90,70,100,0,40,–
